Data published in ChEMBL document CHEMBL3885881, “DrugMatrix”.

Species on record: Rattus norvegicus
Assay: DrugMatrix - Regimen: Daily Repeat
Format: toxicity, organism-based, Sprague-Dawley
Set-up: regimen Daily Repeat, gender Male, age 6-8 weeks
Conditions: in vivo, po, route oral GAVAGE, vehicle 100 % WATER; for URIC ACID / ALANINE AMINOTRANSFERASE / ALBUMIN / ALKALINE PHOSPHATASE / ASPARTATE AMINOTRANSFERASE / BLOOD UREA NITROGEN / CARBON DIOXIDE / CHLORIDE / CHOLESTEROL / CREATINE PHOSPHOKINASE / CREATININE / GLUCOSE / LACTATE DEHYDROGENASE / LIPASE / PHOSPHORUS / POTASSIUM / SODIUM / TOTAL BILIRUBIN / TOTAL PROTEIN: tissue Plasma; for ABSOLUTE BASOPHIL / ABSOLUTE EOSINOPHIL / ABSOLUTE LYMPHOCYTE / ABSOLUTE MONOCYTE / ABSOLUTE SEGMENTED NEUTROPHIL / BASOPHIL / EOSINOPHIL / ERYTHROCYTE COUNT / HEMATOCRIT / HEMOGLOBIN / LEUKOCYTE COUNT / LYMPHOCYTE / MEAN CORPUSCULAR HEMOGLOBIN / MEAN CORPUSCULAR HEMOGLOBIN CONCENTRATION / MONOCYTE / NEUTROPHIL / NUCLEATED RED BLOOD CELLS / PLATELET COUNT: tissue Blood
[1] = 50 mg/kg, 120 h, dose level Low, time 5 day
[2] = 1750 mg/kg, 72 h, dose level High, time 3 day
[3] = 1750 mg/kg, 120 h, dose level High, time 5 day

With `C[C@H](CS)C(=O)N1CCC[C@H]1C(=O)O` [CAPTOPRIL] the “URIC ACID” value (50 mg/kg, 72 h, dose level Low, time 3 day) was 1.37 mg/dL, the “ABSOLUTE BASOPHIL” value [1] was 0 CELLS/uL and the “ABSOLUTE EOSINOPHIL” value [1] was 130 CELLS/uL. The “ABSOLUTE LYMPHOCYTE” value [1] was 12459.67 CELLS/uL, the “ABSOLUTE MONOCYTE” value [1] was 96.33 CELLS/uL and the “ABSOLUTE SEGMENTED NEUTROPHIL” value [1] was 1180.67 CELLS/uL. The BASOPHIL [1] was 0%, the EOSINOPHIL [1] was 1% and the “ERYTHROCYTE COUNT” value [1] was 5.51 x10E6/uL. The HEMATOCRIT [1] was 34.87%, the HEMOGLOBIN [1] was 14.1 G/DL and the “LEUKOCYTE COUNT” value [1] was 13.87 x10E3/uL. The LYMPHOCYTE [1] was 90%, the “MEAN CORPUSCULAR HEMOGLOBIN” value [1] was 25.63 pg and the “MEAN CORPUSCULAR HEMOGLOBIN CONCENTRATION” value [1] was 40.43 G/DL. For the same compound, the MONOCYTE [1] was 0.67%, the NEUTROPHIL [1] was 8.33% and the “NUCLEATED RED BLOOD CELLS” value [1] was 0.33 /100WBC. For the same compound, the “PLATELET COUNT” value [1] was 1341.67 x10E3/uL, the “ALANINE AMINOTRANSFERASE” value [1] was 46.33 u/L and the ALBUMIN [1] was 4.37 G/DL. The “ALKALINE PHOSPHATASE” value [1] was 377.67 u/L, the “ASPARTATE AMINOTRANSFERASE” value [1] was 83.33 u/L and the “BLOOD UREA NITROGEN” value [1] was 16.67 mg/dL. For the same compound, the “CARBON DIOXIDE” value [1] was 30.67 mmol/L, the CHLORIDE [1] was 100.33 MEQ/L and the CHOLESTEROL [1] was 79.67 mg/dL. The “CREATINE PHOSPHOKINASE” value [1] was 326.33 u/L, the CREATININE [1] was 0.2 mg/dL and the GLUCOSE [1] was 140.67 mg/dL. For the same compound, the “LACTATE DEHYDROGENASE” value [1] was 506 u/L, the LIPASE [1] was 12.67 u/L and the PHOSPHORUS [1] was 10.43 mg/dL. The POTASSIUM [1] was 6.71 MEQ/L, the SODIUM [1] was 141.93 MEQ/L and the “TOTAL BILIRUBIN” value [1] was 0.2 mg/dL. The “TOTAL PROTEIN” value [1] was 6.37 G/DL, the “URIC ACID” value [1] was 1.4 mg/dL and the “ABSOLUTE BASOPHIL” value [2] was 0 CELLS/uL. The “ABSOLUTE EOSINOPHIL” value [2] was 0 CELLS/uL, the “ABSOLUTE LYMPHOCYTE” value [2] was 14323.33 CELLS/uL and the “ABSOLUTE MONOCYTE” value [2] was 220.67 CELLS/uL. The “ABSOLUTE SEGMENTED NEUTROPHIL” value [2] was 1556 CELLS/uL, the BASOPHIL [2] was 0% and the EOSINOPHIL [2] was 0%. For the same compound, the “ERYTHROCYTE COUNT” value [2] was 5.51 x10E6/uL, the HEMATOCRIT [2] was 34.3% and the HEMOGLOBIN [2] was 13.6 G/DL. For the same compound, the “LEUKOCYTE COUNT” value [2] was 16.1 x10E3/uL, the LYMPHOCYTE [2] was 89% and the “MEAN CORPUSCULAR HEMOGLOBIN” value [2] was 24.73 pg. The “MEAN CORPUSCULAR HEMOGLOBIN CONCENTRATION” value [2] was 39.67 G/DL, the MONOCYTE [2] was 1.33% and the NEUTROPHIL [2] was 9.67%. For the same compound, the “NUCLEATED RED BLOOD CELLS” value [2] was 0.67 /100WBC, the “PLATELET COUNT” value [2] was 1393 x10E3/uL and the “ALANINE AMINOTRANSFERASE” value [2] was 54.67 u/L. The ALBUMIN [2] was 4.07 G/DL, the “ALKALINE PHOSPHATASE” value [2] was 365.33 u/L and the “ASPARTATE AMINOTRANSFERASE” value [2] was 87 u/L. For the same compound, the “BLOOD UREA NITROGEN” value [2] was 25.67 mg/dL, the “CARBON DIOXIDE” value [2] was 24 mmol/L and the CHLORIDE [2] was 100.67 MEQ/L. The CHOLESTEROL [2] was 71.67 mg/dL, the “CREATINE PHOSPHOKINASE” value [2] was 349.33 u/L and the CREATININE [2] was 0.16 mg/dL. The GLUCOSE [2] was 152.33 mg/dL, the “LACTATE DEHYDROGENASE” value [2] was 356 u/L and the LIPASE [2] was 10.33 u/L. For the same compound, the PHOSPHORUS [2] was 11.53 mg/dL, the SODIUM [2] was 139.9 MEQ/L and the “TOTAL BILIRUBIN” value [2] was 0.2 mg/dL. The “TOTAL PROTEIN” value [2] was 5.73 G/DL, the “URIC ACID” value [2] was 1.27 mg/dL and the “ABSOLUTE BASOPHIL” value [3] was 0 CELLS/uL. The “ABSOLUTE EOSINOPHIL” value [3] was 0 CELLS/uL, the “ABSOLUTE LYMPHOCYTE” value [3] was 12668 CELLS/uL and the “ABSOLUTE MONOCYTE” value [3] was 119.33 CELLS/uL. The “ABSOLUTE SEGMENTED NEUTROPHIL” value [3] was 946 CELLS/uL, the BASOPHIL [3] was 0% and the EOSINOPHIL [3] was 0%. For the same compound, the “ERYTHROCYTE COUNT” value [3] was 5.54 x10E6/uL, the HEMATOCRIT [3] was 34.7% and the HEMOGLOBIN [3] was 13.83 G/DL. The “LEUKOCYTE COUNT” value [3] was 13.73 x10E3/uL, the LYMPHOCYTE [3] was 92.33% and the “MEAN CORPUSCULAR HEMOGLOBIN” value [3] was 25.03 pg. The “MEAN CORPUSCULAR HEMOGLOBIN CONCENTRATION” value [3] was 39.9 G/DL, the MONOCYTE [3] was 1% and the NEUTROPHIL [3] was 6.67%. The “NUCLEATED RED BLOOD CELLS” value [3] was 0 /100WBC, the “PLATELET COUNT” value [3] was 1353.67 x10E3/uL and the “ALANINE AMINOTRANSFERASE” value [3] was 53.67 u/L. The ALBUMIN [3] was 4.13 G/DL, the “ALKALINE PHOSPHATASE” value [3] was 415 u/L and the “ASPARTATE AMINOTRANSFERASE” value [3] was 102 u/L. For the same compound, the “BLOOD UREA NITROGEN” value [3] was 39.33 mg/dL, the “CARBON DIOXIDE” value [3] was 24.33 mmol/L and the CHLORIDE [3] was 102.33 MEQ/L. The CHOLESTEROL [3] was 70.33 mg/dL, the “CREATINE PHOSPHOKINASE” value [3] was 594.67 u/L and the CREATININE [3] was 0.33 mg/dL. For the same compound, the GLUCOSE [3] was 145.33 mg/dL, the “LACTATE DEHYDROGENASE” value [3] was 1114.33 u/L and the LIPASE [3] was 11 u/L. For the same compound, the PHOSPHORUS [3] was 10.47 mg/dL, the POTASSIUM [3] was 6.84 MEQ/L and the SODIUM [3] was 141.27 MEQ/L. For the same compound, the “TOTAL BILIRUBIN” value [3] was 0.23 mg/dL, the “TOTAL PROTEIN” value [3] was 6.03 G/DL and the “URIC ACID” value [3] was 1.87 mg/dL.
